{
  "source": "BindingDB's records for doi:10.1016/j.bmcl.2018.10.050",
  "about": "(Vanderbilt University, 2019)",
  "assay": "Inhibition of CYP1A2 (unknown origin)",
  "data": [
    {"smiles": "FC(F)(F)c1nccc2cc(Nc3n[nH]c4nccnc34)ccc12", "note": "[N-(1H-pyrazolo[3,4-b]pyrazin-3-yl)-1-(trifluoromethyl) isoquinolin-6-amine]", "values": [
      {"measurement": "IC50", "result": "< 500", "unit": "µM"}
    ]},
    {"smiles": "FC(F)(F)c1nccc2cc(Nc3n[nH]c4cccnc34)ccc12", "note": "[N-(1H-pyrazolo[4,3-b]pyridin-3-yl)-1-(trifluoromethyl) isoquinolin-6-amine]", "values": [
      {"measurement": "IC50", "result": "< 500", "unit": "µM"}
    ]}
  ]
}
